Measurements reported in the supplement of paper PMC7661543.
± gives the standard deviation of the averaged measurements.

Legend:
Assay in all cases: relative cell number vs DMSO control (72 h) (% of DMSO); higher = less growth inhibition (more cells)
Details in all cases: sgRNA knockout: sgNT
BT-20 = tested on: BT-20
Experimental: (§1)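 QMAP-Seq: a pool of 5 breast cancer cell lines (ZR-75-1, SKBR3, HCC-38, MDA-MB-231, BT-20), each carrying 12 doxycycline-inducible Cas9 sgRNA perturbations (11 knockouts plus non-targeting sgNT), was treated with compounds for 72 h at four 10-fold doses (10 nM-10 uM or 1 nM-1 uM range). Barcodes were amplified and sequenced, and cell number was interpolated from 293T spike-in standard curves. The result is expressed as % of the median of DMSO wells. Two biological replicates.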

MDA-MB-231 = tested on: MDA-MB-231
Experimental: as §1

HCC-38 = tested on: HCC-38
Experimental: as §1

ZR-75-1 = tested on: ZR-75-1
Experimental: as §1

SKBR3 = tested on: SKBR3
Experimental: as §1

| SMILES | relative cell number (BT-20; 10 nM) | relative cell number (BT-20; 100 nM) | relative cell number (BT-20; 1000 nM) | relative cell number (BT-20; 10000 nM) | relative cell number (MDA-MB-231; 10 nM) | relative cell number (MDA-MB-231; 100 nM) | relative cell number (MDA-MB-231; 1000 nM) | relative cell number (MDA-MB-231; 10000 nM) | relative cell number (HCC-38; 10 nM) | relative cell number (HCC-38; 100 nM) | relative cell number (HCC-38; 1000 nM) | relative cell number (HCC-38; 10000 nM) | relative cell number (ZR-75-1; 10 nM) | relative cell number (ZR-75-1; 100 nM) | relative cell number (ZR-75-1; 1000 nM) | relative cell number (ZR-75-1; 10000 nM) | relative cell number (SKBR3; 10 nM) | relative cell number (SKBR3; 100 nM) | relative cell number (SKBR3; 1000 nM) | relative cell number (SKBR3; 10000 nM) |
| --- | --- | --- | --- | --- | --- | --- | --- | --- | --- | --- | --- | --- | --- | --- | --- | --- | --- | --- | --- | --- |
| CN1C(=O)C(Cc2c[nH]c3ccccc23)NC1=S (stereo not given) [Necrostatin1] | 110 ± 16 | 63.8 ± 8.2 | 82.9 ± 0.53 | 114 ± 14 | 97.3 ± 20 | 79.2 ± 7.1 | 97.7 ± 25 | 64.1 ± 3 | 110 ± 12 | 92.5 ± 3.2 | 105 ± 2.8 | 91.2 ± 2.3 | 76.9 ± 14 | 71.3 ± 29 | 78.3 ± 31 | 84.6 ± 35 | 89.8 ± 11 | 92.2 ± 8.2 | 60.4 ± 1.4 | 68.6 ± 3.7 |
| COc1nc(N)nc2c1ncn2[C@@H]1O[C@H](CO)[C@@H](O)[C@@H]1O [Nelarabine] | 90.5 ± 4.3 | 85.5 ± 1.7 | 94.9 ± 26 | 98 ± 15 | 82 ± 19 | 95.5 ± 4.6 | 104 ± 23 | 72 ± 26 | 113 ± 3.4 | 96.7 ± 16 | 99 ± 21 | 109 ± 4.1 | 85.5 ± 33 | 74.6 ± 23 | 81.7 ± 5.5 | 109 ± 7.7 | 100 ± 31 | 85.8 ± 2.9 | 101 ± 6.9 | 91.7 ± 4.2 |
| CCOc1cc2ncc(C#N)c(Nc3ccc(OCc4ccccn4)c(Cl)c3)c2cc1NC(=O)/C=C/CN(C)C [Neratinib] | 86.8 ± 7.5 | 99.2 ± 16 | 79.7 ± 16 | 51.4 ± 2.7 | 98.3 ± 10 | 74.1 ± 4 | 91.24 ± 0.32 | 46.6 ± 1.1 | 85 ± 2.7 | 101 ± 7 | 95.9 ± 12 | 50 ± 3.4 | 100 ± 32 | 73.9 ± 1.6 | 70.7 ± 6 | 47.4 ± 0.48 | 92.7 ± 6.7 | 70.3 ± 1.5 | 27.1 ± 5.3 | 17.2 ± 0.58 |
| O=C(Nc1ccc([N+](=O)[O-])cc1Cl)c1cc(Cl)ccc1O [Niclosamide] | 91.7 ± 20 | 109 ± 7 | 98.5 ± 3.8 | 55 ± 12 | 115 ± 21 | 119 ± 34 | 97.4 ± 20 | 37.7 ± 14 | 92.2 ± 13 | 92.62 ± 0.79 | 113 ± 7.2 | 46.5 ± 11 | 88.4 ± 14 | 104 ± 61 | 102 ± 80 | 50.2 ± 10 | 108 ± 7.6 | 83.6 ± 3.2 | 82.1 ± 19 | 59.8 ± 2.1 |
| Cc1cn(-c2cc(NC(=O)c3ccc(C)c(Nc4nccc(-c5cccnc5)n4)c3)cc(C(F)(F)F)c2)cn1 [Nilotinib] | 99.6 ± 18 | 87.1 ± 14 | 94.2 ± 22 | 63.1 ± 6.3 | 80.9 ± 6.4 | 118 ± 19 | 88.1 ± 1.5 | 63.5 ± 28 | 93.4 ± 2.5 | 102 ± 16 | 98.8 ± 11 | 93.7 ± 30 | 75.2 ± 1.9 | 94.4 ± 29 | 107 ± 2.8 | 35.1 ± 20 | 79.5 ± 24 | 88.7 ± 0.9 | 98.3 ± 25 | 13.8 ± 12 |
| O=[N+]([O-])c1ccc(O)c2ncccc12 [Nitroxoline] | 93.1 ± 19 | 87.9 ± 43 | 114 ± 13 | 56.1 ± 6.1 | 54.2 ± 9.2 | 103 ± 22 | 88.3 ± 10 | 37.7 ± 9.7 | 86.5 ± 3.6 | 88.83 ± 0.36 | 107 ± 14 | 45.9 ± 0.87 | 86.7 ± 6.9 | 94.1 ± 17 | 97.4 ± 51 | 33.4 ± 19 | 82.9 ± 23 | 91.1 ± 3.5 | 43.59 ± 0.14 | 40 ± 6.6 |
| COc1cccc2cc(-c3nc([C@H]4CC[C@H](C(=O)O)CC4)n4ncnc(N)c34)[nH]c12 [OSI027] | 85.8 ± 7.3 | 113 ± 1.8 | 83.39 ± 0.24 | 52.5 ± 14 | 97.4 ± 8.9 | 128 ± 27 | 83.4 ± 29 | 58.9 ± 11 | 108 ± 20 | 107 ± 29 | 84.2 ± 1.9 | 31.2 ± 0.23 | 81.1 ± 21 | 94.9 ± 17 | 63.4 ± 24 | 25.4 ± 2 | 87.6 ± 25 | 116 ± 31 | 69.9 ± 14 | 27.8 ± 6.2 |
| O=C(c1cc(Cc2n[nH]c(=O)c3ccccc23)ccc1F)N1CCN(C(=O)C2CC2)CC1 [Olaparib] | 103 ± 6 | 85.9 ± 12 | 73.2 ± 6.7 | 94 ± 7.7 | 87.3 ± 12 | 83.4 ± 1.6 | 93.9 ± 22 | 93.2 ± 31 | 93.4 ± 4.8 | 102 ± 2.2 | 88.6 ± 1.6 | 62.5 ± 0.89 | 78.3 ± 13 | 89.3 ± 28 | 64.1 ± 3.7 | 91.3 ± 17 | 87.7 ± 1.6 | 111 ± 9.3 | 85.4 ± 11 | 48.7 ± 9.5 |
| Cc1ncc([N+](=O)[O-])n1CC(O)CCl (stereo not given) [Ornidazole] | 103 ± 7.7 | 81.8 ± 1.3 | 96.5 ± 6.5 | 104 ± 17 | 103.6 ± 0.42 | 108 ± 7.5 | 74.3 ± 12 | 138 ± 14 | 84.2 ± 8.7 | 88.1 ± 7.5 | 114 ± 19 | 97.7 ± 13 | 95 ± 18 | 76.4 ± 24 | 121 ± 71 | 84.3 ± 25 | 70.1 ± 3.7 | 102 ± 12 | 91.3 ± 26 | 104 ± 29 |
| C=CCc1cccc(/C=N/NC(=O)CN2CCN(Cc3ccccc3)CC2)c1O [PAC1] | 92 ± 13 | 84.1 ± 14 | 74.6 ± 4.9 | 45.7 ± 18 | 104 ± 32 | 134.14 ± 0.028 | 109 ± 32 | 31.7 ± 4.5 | 104 ± 7.8 | 103 ± 7 | 90 ± 11 | 33.9 ± 2.5 | 99.5 ± 9.9 | 46.5 ± 24 | 89.6 ± 8.7 | 12.5 ± 5.5 | 68 ± 7 | 88.5 ± 14 | 68 ± 27 | 32.5 ± 11 |
| Oc1cccc(-c2nc(N3CCOCC3)c3oc4ncccc4c3n2)c1 [PI103] | 120 ± 44 | 124 ± 37 | 68.7 ± 11 | 49.7 ± 11 | 143 ± 15 | 126 ± 41 | 118 ± 15 | 37.3 ± 11 | 118 ± 1.5 | 111 ± 1.1 | 85.3 ± 4.5 | 31.4 ± 2.4 | 121 ± 13 | 129 ± 16 | 58 ± 21 | 18.9 ± 2.2 | 145 ± 47 | 134 ± 2.6 | 62.6 ± 31 | 33.1 ± 2.4 |
| CC(=O)Nc1nc(C)c(-c2ccc(Cl)c(S(=O)(=O)NCCO)c2)s1 [PIK93] | 106 ± 8.5 | 104 ± 2.3 | 98.71 ± 0.17 | 74 ± 3.9 | 84.5 ± 40 | 98.2 ± 31 | 88.6 ± 11 | 37.5 ± 1.5 | 115 ± 21 | 118 ± 22 | 80.4 ± 7.5 | 62.7 ± 7.3 | 128 ± 19 | 99.2 ± 33 | 61.1 ± 14 | 63.8 ± 24 | 112 ± 59 | 66.5 ± 30 | 94.4 ± 41 | 51.9 ± 25 |
